Results taken from patent US20230295200A1 (REGENTS OF THE UNIVERSITY OF MICHIGAN, priority 2022, published 2023).

Legend:
STAT5A = biological target: T1, STAT5A (Homo sapiens, UniProt P42229); assay: Fluorescence polarization (FP) binding assay, STAT5A; conditions: FP competition, 5 nM fluorescein-labeled tracer, 200 nM protein, PBS pH7.4
T1 sequence (P42229 1-794): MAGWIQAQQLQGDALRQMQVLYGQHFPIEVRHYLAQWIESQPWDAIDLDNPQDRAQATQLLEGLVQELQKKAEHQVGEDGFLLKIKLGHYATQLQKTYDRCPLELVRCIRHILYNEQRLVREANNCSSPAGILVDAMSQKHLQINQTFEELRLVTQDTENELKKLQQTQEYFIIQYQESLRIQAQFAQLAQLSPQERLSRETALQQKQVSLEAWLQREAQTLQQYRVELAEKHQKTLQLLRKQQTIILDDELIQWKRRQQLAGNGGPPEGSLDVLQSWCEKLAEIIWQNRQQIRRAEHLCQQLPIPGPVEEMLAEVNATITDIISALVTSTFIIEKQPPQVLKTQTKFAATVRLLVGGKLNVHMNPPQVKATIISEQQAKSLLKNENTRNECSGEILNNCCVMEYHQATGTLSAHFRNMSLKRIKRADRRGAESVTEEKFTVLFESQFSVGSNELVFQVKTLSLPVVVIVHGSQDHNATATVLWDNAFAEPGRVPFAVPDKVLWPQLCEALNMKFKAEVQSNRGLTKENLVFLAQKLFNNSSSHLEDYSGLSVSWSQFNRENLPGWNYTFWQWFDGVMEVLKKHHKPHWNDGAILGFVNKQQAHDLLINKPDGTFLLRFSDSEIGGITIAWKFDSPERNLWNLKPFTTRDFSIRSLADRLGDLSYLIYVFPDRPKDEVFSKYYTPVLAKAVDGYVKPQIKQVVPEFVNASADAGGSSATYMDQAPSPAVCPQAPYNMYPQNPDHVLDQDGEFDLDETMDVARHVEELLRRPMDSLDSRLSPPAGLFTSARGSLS
How it was run: (§1)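 Fluorescence polarization is read after STAT5 or STAT6 protein (200 nM) and a fluorescein-labeled tracer (5 nM) equilibrate for 1 h at room temperature in DTT-containing PBS pH 7.4 with BGG and Tween-20. Inhibition constants are obtained by nonlinear curve fitting.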

STAT6 protein = biological target: T2, STAT6 protein (Homo sapiens, UniProt P42226); assay: Fluorescence polarization (FP) binding assay, STAT6; conditions: FP competition, 5 nM fluorescein-labeled tracer, 200 nM protein, PBS pH7.4; read-out: Binding STAT6
T2 sequence (P42226 1-847): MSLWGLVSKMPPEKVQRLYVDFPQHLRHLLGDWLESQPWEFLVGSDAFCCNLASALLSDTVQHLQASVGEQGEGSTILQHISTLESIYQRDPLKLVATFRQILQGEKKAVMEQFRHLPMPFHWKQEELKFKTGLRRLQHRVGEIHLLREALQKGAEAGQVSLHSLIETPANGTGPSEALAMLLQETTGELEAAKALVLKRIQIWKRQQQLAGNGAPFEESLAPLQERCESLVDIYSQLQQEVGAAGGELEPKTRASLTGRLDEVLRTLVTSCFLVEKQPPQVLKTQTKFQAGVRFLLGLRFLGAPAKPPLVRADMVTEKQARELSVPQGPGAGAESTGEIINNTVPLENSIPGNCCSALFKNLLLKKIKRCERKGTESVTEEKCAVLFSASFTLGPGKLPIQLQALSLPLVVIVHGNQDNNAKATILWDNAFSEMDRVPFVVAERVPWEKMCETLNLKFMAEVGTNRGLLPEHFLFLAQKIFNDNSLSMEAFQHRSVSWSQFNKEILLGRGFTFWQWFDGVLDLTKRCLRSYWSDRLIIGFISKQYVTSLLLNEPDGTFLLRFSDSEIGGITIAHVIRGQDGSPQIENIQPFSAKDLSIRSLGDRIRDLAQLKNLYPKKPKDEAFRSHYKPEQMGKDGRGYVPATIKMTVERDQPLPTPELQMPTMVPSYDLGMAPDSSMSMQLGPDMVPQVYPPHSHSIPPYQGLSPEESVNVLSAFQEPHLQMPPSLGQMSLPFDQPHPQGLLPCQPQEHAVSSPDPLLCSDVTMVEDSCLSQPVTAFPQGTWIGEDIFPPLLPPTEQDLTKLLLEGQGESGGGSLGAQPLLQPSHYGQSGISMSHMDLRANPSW
How it was run: as §1

SMILES | Ki (STAT5A) [nM] | Ki (STAT6 protein) [nM]
CC(C)(C)[C@H](NC(=O)c1cc2cc(C(F)(F)P(=O)(O)O)ccc2s1)C(=O)N1CCCCC[C@H]1C(=O)N1CCO[C@H](c2ccccc2)C1 [Compound 183, ((2-(((S)-3,3-dimethyl-1-oxo-1-((S)-2-((R)-2-phenylmorpholine-4-carbonyl)azepan-1-yl)butan-2-yl)carbamoyl)benzo[b]thiophen-5-yl)difluoromethyl)phosphonic acid] | 1000 to 10000 | 100 to 1000
CC(C)(C)[C@H](NC(=O)c1cc2cc(C(F)(F)P(=O)(O)O)ccc2s1)C(=O)N1CCCCC[C@H]1C(=O)N1CCC[C@H](c2ccccc2)C1 [Compound 184, ((2-(((S)-3,3-dimethyl-1-oxo-1-((S)-2-((R)-3-phenylpiperidine-1-carbonyl)azepan-1-yl)butan-2-yl)carbamoyl)benzo[b]thiophen-5-yl)difluoromethyl)phosphonic acid] | 1000 to 10000 | 100 to 1000
CC(C)(C)[C@H](NC(=O)c1cc2cc(C(F)(F)P(=O)(O)O)ccc2s1)C(=O)N1CCCCC[C@H]1C(=O)N1CC[C@H](c2ccccc2)C1 [Compound 185, ((2-(((S)-3,3-dimethyl-1-oxo-1-((S)-2-((R)-3-phenylpyrrolidine-1-carbonyl)azepan-1-yl)butan-2-yl)carbamoyl)benzo[b]thiophen-5-yl)difluoromethyl)phosphonic acid] | 1000 to 10000 | 1000 to 10000
CC(C)(C)[C@H](NC(=O)c1cc2cc(C(F)(F)P(=O)(O)O)ccc2s1)C(=O)N1CCCCC[C@H]1C(=O)N1CC[C@@H](c2ccccc2)C1 [Compound 186, ((2-(((S)-3,3-dimethyl-1-oxo-1-((S)-2-((S)-3-phenylpyrrolidine-1-carbonyl)azepan-1-yl)butan-2-yl)carbamoyl)benzo[b]thiophen-5-yl)difluoromethyl)phosphonic acid] | 1000 to 10000 | > 10000
CC(C)(C)[C@H](NC(=O)c1cc2cc(C(F)(F)P(=O)(O)O)ccc2s1)C(=O)N1CCCCC[C@H]1C(=O)N1Cc2ccccc2C1 [Compound 187, (difluoro(2-(((S)-1-((S)-2-(isoindoline-2-carbonyl)azepan-1-yl)-3,3-dimethyl-1-oxobutan-2-yl)carbamoyl)benzo[b]thiophen-5-yl)methyl)phosphonic acid] | > 10000 | 1000 to 10000
CC(C)(C)[C@H](NC(=O)c1cc2cc(C(F)(F)P(=O)(O)O)ccc2s1)C(=O)N1CCCCC[C@H]1C(=O)Nc1ncc(-c2ccccc2)s1 [Compound 188, ((2-(((S)-3,3-dimethyl-1-oxo-1-((S)-2-((5-phenylthiazol-2-yl)carbamoyl)azepan-1-yl)butan-2-yl)carbamoyl)benzo[b]thiophen-5-yl)difluoromethyl)phosphonic acid] | 100 to 1000 | 1000 to 10000
CC(C)(C)[C@H](NC(=O)c1cc2cc(C(F)(F)P(=O)(O)O)ccc2s1)C(=O)N1Cc2ccccc2CC1C(=O)N1CCO[C@H](c2ccccc2)C1 (stereo partly drawn) [Compound 189, ((2-(((2S)-3,3-dimethyl-1-oxo-1-(3-((R)-2-phenylmorpholine-4-carbonyl)-3,4-dihydroisoquinolin-2(1H)-yl)butan-2-yl)carbamoyl)benzo[b]thiophen-5-yl)difluoromethyl)phosphonic acid] | 1000 to 10000 | 100 to 1000
CC(C)(C)[C@H](NC(=O)c1cc2cc(C(F)(F)P(=O)(O)O)ccc2s1)C(=O)N1Cc2ccccc2CC1C(=O)N1CCC[C@H](c2ccccc2)C1 (stereo partly drawn) [Compound 190, ((2-(((2S)-3,3-dimethyl-1-oxo-1-(3-((R)-3-phenylpiperidine-1-carbonyl)-3,4-dihydroisoquinolin-2(1H)-yl)butan-2-yl)carbamoyl)benzo[b]thiophen-5-yl)difluoromethyl)phosphonic acid] | 1000 to 10000 | 100 to 1000
CC(C)(C)[C@H](NC(=O)c1cc2cc(C(F)(F)P(=O)(O)O)ccc2s1)C(=O)N1Cc2ccccc2CC1C(=O)N1CC[C@H](c2ccccc2)C1 (stereo partly drawn) [Compound 191, ((2-(((2S)-3,3-dimethyl-1-oxo-1-(3-((R)-3-phenylpyrrolidine-1-carbonyl)-3,4-dihydroisoquinolin-2(1H)-yl)butan-2-yl)carbamoyl)benzo[b]thiophen-5-yl)difluoromethyl)phosphonic acid] | > 10000 | 1000 to 10000
CC(C)(C)[C@H](NC(=O)c1cc2cc(C(F)(F)P(=O)(O)O)ccc2s1)C(=O)N1Cc2ccccc2CC1C(=O)N1CC[C@@H](c2ccccc2)C1 (stereo partly drawn) [Compound 192, ((2-(((2S)-3,3-dimethyl-1-oxo-1-(3-((S)-3-phenylpyrrolidine-1-carbonyl)-3,4-dihydroisoquinolin-2(1H)-yl)butan-2-yl)carbamoyl)benzo[b]thiophen-5-yl)difluoromethyl)phosphonic acid] | > 10000 | > 10000

Second part, the compound after the results:

Ki (STAT5A) [nM] | Ki (STAT6 protein) [nM] | SMILES
> 10000 | > 10000 | CC(C)(C)[C@H](NC(=O)c1cc2cc(C(F)(F)P(=O)(O)O)ccc2s1)C(=O)N1Cc2ccccc2CC1C(=O)N1Cc2ccccc2C1 (stereo partly drawn) [Compound 193, (difluoro(2-(((2S)-1-(3-(isoindoline-2-carbonyl)-3,4-dihydroisoquinolin-2(1H)-yl)-3,3-dimethyl-1-oxobutan-2-yl)carbamoyl)benzo[b]thiophen-5-yl)methyl)phosphonic acid]
100 to 1000 | 1000 to 10000 | CC(C)(C)[C@H](NC(=O)c1cc2cc(C(F)(F)P(=O)(O)O)ccc2s1)C(=O)N1Cc2ccccc2CC1C(=O)Nc1ncc(-c2ccccc2)s1 (stereo partly drawn) [Compound 194, ((2-(((2S)-3,3-dimethyl-1-oxo-1-(3-((5-phenylthiazol-2-yl)carbamoyl)-3,4-dihydroisoquinolin-2(1H)-yl)butan-2-yl)carbamoyl)benzo[b]thiophen-5-yl)difluoromethyl)phosphonic acid]
1000 to 10000 | < 100 | CC(C)(C)[C@H](NC(=O)c1cc2cc(C(F)(F)P(=O)(O)O)ccc2s1)C(=O)N1Cc2ccccc2[C@H]1C(=O)N1CCO[C@H](c2ccccc2)C1 [Compound 195, ((2-(((S)-3,3-dimethyl-1-oxo-1-((S)-1-((R)-2-phenylmorpholine-4-carbonyl)isoindolin-2-yl)butan-2-yl)carbamoyl)benzo[b]thiophen-5-yl)difluoromethyl)phosphonic acid]
1000 to 10000 | < 100 | CC(C)(C)[C@H](NC(=O)c1cc2cc(C(F)(F)P(=O)(O)O)ccc2s1)C(=O)N1Cc2ccccc2[C@H]1C(=O)N1CCC[C@H](c2ccccc2)C1 [Compound 196, ((2-(((S)-3,3-dimethyl-1-oxo-1-((S)-1-((R)-3-phenylpiperidine-1-carbonyl)isoindolin-2-yl)butan-2-yl)carbamoyl)benzo[b]thiophen-5-yl)difluoromethyl)phosphonic acid]
> 10000 | 1000 to 10000 | CC(C)(C)[C@H](NC(=O)c1cc2cc(C(F)(F)P(=O)(O)O)ccc2s1)C(=O)N1Cc2ccccc2[C@H]1C(=O)N1CC[C@H](c2ccccc2)C1 [Compound 197, ((2-(((S)-3,3-dimethyl-1-oxo-1-((S)-1-((R)-3-phenylpyrrolidine-1-carbonyl)isoindolin-2-yl)butan-2-yl)carbamoyl)benzo[b]thiophen-5-yl)difluoromethyl)phosphonic acid]
